Data: PMC6017881, “Probing the Influence of Linker Length and Flexibility in the Design and Synthesis of New Trehalase Inhibitors” (Molecules : A Journal of Synthetic Chemistry and Natural …, 2018)
“Also recorded” adds a separate entry of the source. Where two headings read alike, the source gives them in different places.

Legend:
porcine kidney trehalase [1] = molecular target: T1, porcine kidney trehalase (Sus scrofa, UniProt I3LIR5); assay: Trehalase inhibition, coupled assay with glucose-6-phosphate dehydrogenase and hexokinase (dose-response); assay type: biochemical; conditions: 2.5 mM trehalose (close to Km), 30 °C; read-out: IC50 towards porcine trehalase
T1 construct: porcine kidney trehalase (purchased from Sigma-Aldrich); purchased Sigma-Aldrich; host or cells: porcine kidney
T1 sequence (I3LIR5 24-583): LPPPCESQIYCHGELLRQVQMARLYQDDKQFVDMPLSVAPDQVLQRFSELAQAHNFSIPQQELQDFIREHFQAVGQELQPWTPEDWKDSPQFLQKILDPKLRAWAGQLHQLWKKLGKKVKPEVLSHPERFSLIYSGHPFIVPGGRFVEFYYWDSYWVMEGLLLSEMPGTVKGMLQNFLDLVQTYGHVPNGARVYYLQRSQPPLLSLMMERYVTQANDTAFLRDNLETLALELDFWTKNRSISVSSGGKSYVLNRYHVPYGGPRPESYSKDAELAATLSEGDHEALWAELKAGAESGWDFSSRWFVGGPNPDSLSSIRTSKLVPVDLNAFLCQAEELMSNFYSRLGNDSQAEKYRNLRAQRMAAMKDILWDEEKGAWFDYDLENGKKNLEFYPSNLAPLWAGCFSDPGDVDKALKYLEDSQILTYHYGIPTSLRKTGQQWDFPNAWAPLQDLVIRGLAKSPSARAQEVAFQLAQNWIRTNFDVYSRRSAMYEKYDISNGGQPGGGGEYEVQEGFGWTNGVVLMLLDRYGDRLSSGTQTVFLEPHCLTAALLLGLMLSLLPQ
Procedure: (§1) Compounds were tested for their inhibitory activity against insect trehalase of midge larvae of C. riparius, a good model for biochemical studies, and porcine kidney trehalase (purchased from Sigma-Aldrich, St. Louis, MO, USA) as the mammalian counterpart.
(§2) Trehalase activity was measured through a coupled assay with glucose-6-phosphate dehydrogenase and hexokinase according to Wegener at al. To examine the potential of each compound as a trehalase inhibitor, dose-response curves were established to determine the IC50 values. Experiments were performed at a fixed substrate concentration close to the Km value (0.5 mM for C. riparius and 2.5 mM for porcine trehalase), in the presence of increasing inhibitor concentrations.Initial rates as a function of inhibitor concentration were fitted to the following equation:(1) vi/v=1/1+([I]/IC50)^n where vi and v are the initial rate in the presence and in the absence of inhibitor, respectively, [I] is the inhibitor concentration, IC50 is the inhibitor concentration producing half-maximal inhibition, and n is the Hill coefficient.
(§3) All enzyme assays were performed in triplicates at 30 °C by using sample volumes varying from 5 to 20 μL in 1 mL test and using a Cary3 UV/Vis Spectrophotometer. Enzyme activities were analyzed by Cary Win UV application software for Windows XP.

C. riparius trehalase [2] = molecular target: T2, C. riparius trehalase (Chironomus riparius, UniProt J7EJ73); assay: as above; assay type: biochemical
Procedure: as §1, §2, §3

C. riparius trehalase [3] = molecular target: T2, C. riparius trehalase; assay: Inhibition kinetics at varying trehalose concentration (Lineweaver-Burk plot and replots); assay type: biochemical; conditions: varying trehalose concentration at two inhibitor concentrations
Procedure: To evaluate the inhibitory pattern we performed kinetics measurements by varying the trehalose concentration, at two different concentrations of compounds 9α and 9β.
Kinetic experiments were performed using C. riparius trehalase, measuring enzymatic activity at different trehalose concentrations from 0.05 to 20 mM in the presence of fixed inhibitor concentrations (5–10 µM for the compound 9α and 0.5–1 µM for the compound 9β). Kinetic parameters were calculated using a multiparameter, iterative, non-linear regression program based on the Marquardt-Levenberg algorithm (Sigma Plot, Jandel, CA, USA). Data are given ± S.D. of three independent experiments.
as §3

porcine kidney trehalase [4] = molecular target: T1, porcine kidney trehalase; design: method as in PMID 25407551; conditions: value taken from the literature; ref [7]; read-out: IC50 towards porcine trehalase; cited from earlier work

T2 sequence (J7EJ73 entry or part of it): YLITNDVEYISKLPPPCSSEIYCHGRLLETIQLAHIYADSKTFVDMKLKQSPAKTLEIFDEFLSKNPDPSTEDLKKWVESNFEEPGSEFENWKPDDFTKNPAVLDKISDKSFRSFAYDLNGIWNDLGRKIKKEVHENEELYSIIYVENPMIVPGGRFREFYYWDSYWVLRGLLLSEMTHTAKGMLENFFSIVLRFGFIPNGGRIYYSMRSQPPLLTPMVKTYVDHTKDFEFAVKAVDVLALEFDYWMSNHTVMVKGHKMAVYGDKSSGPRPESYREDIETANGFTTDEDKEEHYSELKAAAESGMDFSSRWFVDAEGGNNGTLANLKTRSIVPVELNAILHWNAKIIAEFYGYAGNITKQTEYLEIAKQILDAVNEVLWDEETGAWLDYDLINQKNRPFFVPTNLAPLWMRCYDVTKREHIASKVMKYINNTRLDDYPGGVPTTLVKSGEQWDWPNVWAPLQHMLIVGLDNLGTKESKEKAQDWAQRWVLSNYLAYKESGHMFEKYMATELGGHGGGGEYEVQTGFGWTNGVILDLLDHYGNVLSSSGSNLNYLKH

Compound	IC50 (porcine kidney trehalase [1])	Inhibitory activity towards C. riparius trehalase (in words) (C. riparius trehalase [2])	IC50 (porcine kidney trehalase [4])	also measured
OC[C@@H]1[C@@H](O)[C@H](O)CN1CCOC1O[C@H](CO)[C@@H](O)[C@H](O)[C@H]1O (stereo partly drawn) [9α,β]	7.67 ± 3.91 µM	–	–	–
OCC1OC(OCCCCN2CC(O)C(O)C2CO)C(O)C(O)C1O (stereo not drawn) [Compound 11]	–	loose completely their inhibitory properties; also recorded: completely inactive	–	–
OC[C@@H]1[C@@H](O)[C@H](O)CN1CCO[C@@H]1O[C@H](CO)[C@@H](O)[C@H](O)[C@H]1O [Compound 9β]	5.84 ± 0.26 µM	–	–	Inhibitory pattern (inhibition type) (C. riparius trehalase [3]): pure competitive
OC[C@@H]1[C@@H](O)[C@H](O)[C@H]2C[C@H](O)CN12 [Compound 7, 7-deoxy-uniflorine A]	–	–	> 1000 µM	–
OC[C@@H]1[C@@H](O)[C@H](O)[C@H]2C[C@@H](O[C@H]3O[C@H](CO)[C@@H](O)[C@H](O)[C@H]3O)CN12 [Compound 4, 7-deoxycasuarine glucoside]	–	–	0.479 ± 0.045 µM	–
OCC1OC(OCCCN2CC(O)C(O)C2CO)C(O)C(O)C1O (stereo not drawn) [Compound 10]	–	loose completely their inhibitory properties; also recorded: completely inactive	–	–
OC[C@@H]1[C@@H](O)[C@H](O)CN1CCO[C@H]1O[C@H](CO)[C@@H](O)[C@H](O)[C@H]1O [Compound 9α]	27.6 ± 5.35 µM	–	–	Inhibitory pattern (inhibition type) (C. riparius trehalase [3]): pure competitive
OC[C@@H]1[C@@H](O)[C@H](O)[C@H]2C[C@H](O[C@H]3O[C@H](CO)[C@@H](O)[C@H](O)[C@H]3O)CN12 [Compound 8, (1R,2R,3R,6S,7aR)-1,2-dihydroxy-3-(hydroxymethyl)hexahydro-1H-pyrrolizin-6-yl-α-hexopyranoside]	191 ± 34.1 µM	active only in the μM range	–	–
OC[C@@H]1[C@@H](O)[C@H](O)[C@H]2[C@H](O)[C@H](O)CN21 [Compound 6, (-)-uniflorine A]	–	–	> 1000 µM	–
